From patent US20130289070A1, “Use of Levocabastine for Modulating Generation of Pro-Inflammatory Cytokines” (Bausch & Lomb Incorporated, priority 2007, published 2013)

Tested on: EoL-1 (human eosinophilic leukaemia cell line) cells
Test: TNF-α-induced cytokine release, non-differentiated EoL-1 cells (NO PMA) (Luminex)
Format: cell-based
Set-up: key to Fractalkine (NO PMA), p of decrement / IL-1α (NO PMA), p of decrement / IL-1β (NO PMA), p of decrement / IL-1ra (NO PMA), p of decrement / IL-5 (NO PMA), p of decrement / IL-7 (NO PMA), p of decrement / IL-8 (NO PMA), p of decrement / IP-10 (NO PMA), p of decrement / MCP-1 (NO PMA), p of decrement / MIP-1β (NO PMA), p of decrement / VEGF (NO PMA), p of decrement: ns = non significant
Procedure: EoL-1 (human eosinophilic leukaemia cell line) cells (Saito et al., 1985; Mayumi, 1992) were maintained in RPMI-1640 medium with L-glutamine supplemented with 10% (v/v) FBS at 37° C. in a humidified atmosphere with 5% CO2. Where indicated, 24 h before the experiment 25 ng/mL PMA ((phorbol 12-myristate 13-acetate, purchased from Sigma Aldrich) was added to the medium to induce eosinophil granulation and differentiation (Ohtsu et al., 1993; Zimmermann et al., 2000).
Half-million cells were aliquoted per point in a 24 well plate; each experiment was performed in triplicate and carried out in parallel with eosinophils differentiated and non differentiated with PMA (25 ng/mL, 24 h). Cells were suspended in low serum medium (RPMI-1640, 0.1% (v/v) FBS). TNF-α was used to induce cytokine secretion as previously described by Steube et al. (2000), and the net release was obtained by comparison to the basal (non-TNF-α treated). In the first experiment we evaluated the concentration and time relation between TNF-α stimulation and cytokine release. Therefore, 5, 10, and 25 ng/mL of TNF-α was administered to the cells at 0, ½, 1, 2, 3, 6, 12 and 24 h (data not shown). An aliquot of 150 μL of supernate was collected for cytokines' analysis. […] Differentiated and non-differentiated EoL-1 cells were exposed from 0.1 to 2.3 mM levocabastine ([…]Levocabastine 0.05% solution eye drops containing cyclodextrins, without benzalkonium chloride), and aliquots of the supernates were collected after 12 and 24 h. The content of cytokines at time zero was estimated by treating the cells with 400 nM calcimycin (A-23187), which is a cytolytic agent that frees all the mediators from the cytoplasmic compartment. In addition, for each experiment we tested the effect of the vehicle, which was added to the wells in a concentration equal to the maximum amount used for drug dilution.
Samples (supernates 12 and 24 h) in triplicate were analyzed using Luminex 200™ (Luminex, Austin, Tex.) and Beadview software v1.0 (Upstate Cell Signaling Solutions, Temecula, Calif.).
All data are presented as mean±SEM for the indicated number of experiments. Statistical significance was determined by Newman-Keuls test after ANOVA using GraphPad Prism (version 3.0; GraphPad Software Inc., San Diego, Calif., USA). P-values<0.05 were considered to be significant.

[1] = 24 h, Levocabastine 2 mM vs TNF-α
[2] = 24 h, TNF-α 5 ng + Levocabastine 2 mM vs TNF-α
[3] = 24 h, TNF-α 10 ng + Levocabastine 2 mM vs TNF-α
[4] = 24 h, TNF-α 20 ng + Levocabastine 2 mM vs TNF-α
[5] = 24 h, TNF-α 5, 10, 20 ng + Levocabastine 2 mM vs TNF-α
[6] = 24 h, VCAM-1 + Levocabastine 2 mM vs VCAM-1
[7] = non-differentiated EoL-1 cells, in the presence of VCAM-1 or fibronectin

C[C@@H]1CN([C@H]2CC[C@](C#N)(c3ccc(F)cc3)CC2)CC[C@]1(C(=O)O)c1ccccc1 [Levocabastine, levocabastine]
IL-8 (NO PMA), p of decrement [1]: ns
IL-10 (NO PMA), p of decrement [1]: ns
IL-12p40 (NO PMA), p of decrement [1]: P < 0.01
IP-10 (NO PMA), p of decrement [1]: ns
MCP-1 (NO PMA), p of decrement [1]: Increase
MIP-1α (NO PMA), p of decrement [1]: Increase
MIP-1β (NO PMA), p of decrement [1]: ns
RANTES (NO PMA), p of decrement [1]: Increase
TGF-α (NO PMA), p of decrement [1]: ns
VEGF (NO PMA), p of decrement [1]: P < 0.001
GM-CSF (NO PMA), p of decrement [2]: ns
IL-1ra (NO PMA), p of decrement [2]: P < 0.01
IL-1β (NO PMA), p of decrement [2]: ns
IL-5 (NO PMA), p of decrement [2]: ns
IL-6 (NO PMA), p of decrement [2]: ns
IL-7 (NO PMA), p of decrement [2]: ns
IL-8 (NO PMA), p of decrement [2]: ns
IL-10 (NO PMA), p of decrement [2]: ns
IL-12p40 (NO PMA), p of decrement [2]: P < 0.001
MCP-1 (NO PMA), p of decrement [2]: ns
TGF-α (NO PMA), p of decrement [2]: P < 0.05
VEGF (NO PMA), p of decrement [2]: P < 0.001
GM-CSF (NO PMA), p of decrement [3]: ns
IL-1ra (NO PMA), p of decrement [3]: P < 0.05
IL-1β (NO PMA), p of decrement [3]: ns
IL-5 (NO PMA), p of decrement [3]: ns
IL-6 (NO PMA), p of decrement [3]: ns
IL-7 (NO PMA), p of decrement [3]: ns
IL-8 (NO PMA), p of decrement [3]: ns
IL-10 (NO PMA), p of decrement [3]: ns
IL-12p40 (NO PMA), p of decrement [3]: P < 0.001
MCP-1 (NO PMA), p of decrement [3]: ns
TGF-α (NO PMA), p of decrement [3]: ns
VEGF (NO PMA), p of decrement [3]: P < 0.001
GM-CSF (NO PMA), p of decrement [4]: ns
IL-1ra (NO PMA), p of decrement [4]: P < 0.01
IL-1β (NO PMA), p of decrement [4]: ns
IL-5 (NO PMA), p of decrement [4]: ns
IL-6 (NO PMA), p of decrement [4]: ns
IL-7 (NO PMA), p of decrement [4]: ns
IL-8 (NO PMA), p of decrement [4]: ns
IL-10 (NO PMA), p of decrement [4]: ns
IL-12p40 (NO PMA), p of decrement [4]: P < 0.001
MCP-1 (NO PMA), p of decrement [4]: ns
TGF-α (NO PMA), p of decrement [4]: P < 0.05
VEGF (NO PMA), p of decrement [4]: P < 0.001
Fractalkine (NO PMA), p of decrement [5]: increase of cytokine secretion
G-CSF (NO PMA), p of decrement [5]: increase of cytokine secretion
IL-1α (NO PMA), p of decrement [5]: increase of cytokine secretion
IP-10 (NO PMA), p of decrement [5]: increase of cytokine secretion
MIP-1α (NO PMA), p of decrement [5]: increase of cytokine secretion
MP-1β (NO PMA), p of decrement [5]: increase of cytokine secretion
RANTES (NO PMA), p of decrement [5]: increase of cytokine secretion
Fractalkine (NO PMA), p of decrement (24 h, TNF-α vs Lev 0.1 mM): ns
IL-1ra (NO PMA), p of decrement (24 h, TNF-α vs Lev 0.1 mM): ns
IL-1α (NO PMA), p of decrement (24 h, TNF-α vs Lev 0.1 mM): ns
IL-1β (NO PMA), p of decrement (24 h, TNF-α vs Lev 0.1 mM): ns
IL-5 (NO PMA), p of decrement (24 h, TNF-α vs Lev 0.1 mM): ns
IL-7 (NO PMA), p of decrement (24 h, TNF-α vs Lev 0.1 mM): ns
IL-8 (NO PMA), p of decrement (24 h, TNF-α vs Lev 0.1 mM): ns
IP-10 (NO PMA), p of decrement (24 h, TNF-α vs Lev 0.1 mM): p < 0.05
MCP-1 (NO PMA), p of decrement (24 h, TNF-α vs Lev 0.1 mM): ns
MIP-1β (NO PMA), p of decrement (24 h, TNF-α vs Lev 0.1 mM): ns
VEGF (NO PMA), p of decrement (24 h, TNF-α vs Lev 0.1 mM): ns
Fractalkine (NO PMA), p of decrement (24 h, TNF-α vs Lev 0.5 mM): ns
IL-1ra (NO PMA), p of decrement (24 h, TNF-α vs Lev 0.5 mM): ns
IL-1α (NO PMA), p of decrement (24 h, TNF-α vs Lev 0.5 mM): ns
IL-1β (NO PMA), p of decrement (24 h, TNF-α vs Lev 0.5 mM): ns
IL-5 (NO PMA), p of decrement (24 h, TNF-α vs Lev 0.5 mM): ns
IL-7 (NO PMA), p of decrement (24 h, TNF-α vs Lev 0.5 mM): ns
IL-8 (NO PMA), p of decrement (24 h, TNF-α vs Lev 0.5 mM): ns
IP-10 (NO PMA), p of decrement (24 h, TNF-α vs Lev 0.5 mM): p < 0.05
MCP-1 (NO PMA), p of decrement (24 h, TNF-α vs Lev 0.5 mM): ns
MIP-1β (NO PMA), p of decrement (24 h, TNF-α vs Lev 0.5 mM): ns
VEGF (NO PMA), p of decrement (24 h, TNF-α vs Lev 0.5 mM): ns
Fractalkine (NO PMA), p of decrement (24 h, TNF-α vs Lev 1.0 mM): ns
IL-1ra (NO PMA), p of decrement (24 h, TNF-α vs Lev 1.0 mM): ns
IL-1α (NO PMA), p of decrement (24 h, TNF-α vs Lev 1.0 mM): ns
IL-1β (NO PMA), p of decrement (24 h, TNF-α vs Lev 1.0 mM): ns
IL-5 (NO PMA), p of decrement (24 h, TNF-α vs Lev 1.0 mM): ns
IL-7 (NO PMA), p of decrement (24 h, TNF-α vs Lev 1.0 mM): ns
IL-8 (NO PMA), p of decrement (24 h, TNF-α vs Lev 1.0 mM): ns
IP-10 (NO PMA), p of decrement (24 h, TNF-α vs Lev 1.0 mM): ns
MCP-1 (NO PMA), p of decrement (24 h, TNF-α vs Lev 1.0 mM): ns
MIP-1β (NO PMA), p of decrement (24 h, TNF-α vs Lev 1.0 mM): ns
VEGF (NO PMA), p of decrement (24 h, TNF-α vs Lev 1.0 mM): ns
Fractalkine (NO PMA), p of decrement (24 h, TNF-α vs Lev 2.3 mM): ns
IL-1ra (NO PMA), p of decrement (24 h, TNF-α vs Lev 2.3 mM): ns
IL-1α (NO PMA), p of decrement (24 h, TNF-α vs Lev 2.3 mM): ns
IL-1β (NO PMA), p of decrement (24 h, TNF-α vs Lev 2.3 mM): ns
IL-5 (NO PMA), p of decrement (24 h, TNF-α vs Lev 2.3 mM): ns
IL-7 (NO PMA), p of decrement (24 h, TNF-α vs Lev 2.3 mM): ns
IL-8 (NO PMA), p of decrement (24 h, TNF-α vs Lev 2.3 mM): ns
IP-10 (NO PMA), p of decrement (24 h, TNF-α vs Lev 2.3 mM): ns
MCP-1 (NO PMA), p of decrement (24 h, TNF-α vs Lev 2.3 mM): ns
MIP-1β (NO PMA), p of decrement (24 h, TNF-α vs Lev 2.3 mM): ns
VEGF (NO PMA), p of decrement (24 h, TNF-α vs Lev 2.3 mM): p < 0.01
MIP-1α (NO PMA), p of increase (24 h, TNF-α vs Lev 0.1-2.3 mM): concentration dependent way p < 0.001
RANTES (NO PMA), p of increase (24 h, TNF-α vs Lev 0.1-2.3 mM): concentration dependent way p < 0.001
Fractalkine (NO PMA), p of decrement [6]: ns
G-CSF (NO PMA), p of decrement [6]: ns
GM-CSF (NO PMA), p of decrement [6]: ns
IL-1ra (NO PMA), p of decrement [6]: P < 0.01
IL-1α (NO PMA), p of decrement [6]: ns
IL-1β (NO PMA), p of decrement [6]: ns
IL-5 (NO PMA), p of decrement [6]: ns
IL-6 (NO PMA), p of decrement [6]: P < 0.001
IL-7 (NO PMA), p of decrement [6]: ns
IL-8 (NO PMA), p of decrement [6]: P < 0.001
IL-10 (NO PMA), p of decrement [6]: ns
IL-12p40 (NO PMA), p of decrement [6]: ns
IP-10 (NO PMA), p of decrement [6]: ns
MCP-1 (NO PMA), p of decrement [6]: ns
MIP-1α (NO PMA), p of decrement [6]: Increase
MIP-1β (NO PMA), p of decrement [6]: ns
RANTES (NO PMA), p of decrement [6]: Increase
TGF-α (NO PMA), p of decrement [6]: ns
VEGF (NO PMA), p of decrement [6]: P < 0.001
release of VEGF (FIG. 4 Panel B) (Naïve EoL-1 cells challenged with TNF-α, levocabastine with cyclodextrin pre-treatment): reduced release
IL-6 release (FIG. 13) [7]: inhibited
release, cytokine not named (FIG. 12) [7]: inhibited
